Results as given in patent EP1289977B1, “TRITERPENOID DERIVATIVES AND THEIR USE AS ANTIPROLIFERATIVE AGENTS” (Univerzita palackeho V Olomouci, priority 2000, dated 2001).

How the values were obtained:
Format in all cases: cell-based
[1] = system: CEM; experiment: MTT cytotoxicity screening assay, CEM; conditions: CCRF-CEM, human T-lymphoblastic leukemia, 72 hours, read-out: TCS50
Description: (§1) One of the parameters used as the basis for colorimetric assays is the metabolic activity of viable cells. For example, a microtiter assay which uses the tetrazolium salt MTT is now widely used to quantitate cell proliferation and cytotoxicity [Hajduch M, Mihal V, Minarik J, Fáber E, ? afárová M, Weigl E, Antálek P.: Cytotechnology, 1996,19,243-245]. For instance, this assay is used in drug screening programs and in chemosensitivity testing. Because tetrazolium salts are cleaved only by metabolically active cells, these assays exclusively detect viable cells. In the case of the MTT assay, yellow soluble tetrazolium salt is reduced to a coloured water-insoluble formazan salt. After it is solubilized, the formazan formed can easily and rapidly be quantified in a conventional ELISA plate reader at 570 nm (maximum absorbancy). The quantity of reduced formazan corresponds to the number of vital cells in the culture.
Human T-lymphoblastic leukaemia cell line CEM was used for routine screening of these compounds. […] The cells were maintained in Nunc/Coming 80 cm^2 plastic tissue culture flasks and cultured in cell culture medium (DMEM with 5 g/l glucose, 2mM glutamine, 100 U/ml penicillin, 100 µg/ml streptomycin, 10% foetal calf serum and sodium bicarbonate). Individual compounds were dissolved in 10% dimethylsulfoxide/saline, pH 8.0.
The cell suspensions that were prepared and diluted according to the particular cell type and the expected target cell density (2.500-30.000 cells per well based on cell growth characteristics) were added by pipette (80 µl) into 96/well microtiter plates. Inoculates were allowed a pre-incubation period of 24 hours at 37°C and 5% CO2 for stabilisation. Four-fold dilutions of the intended test concentration were added at time zero in 20 µl aliquots to the microtiter plate wells. Usually, test compounds were evaluated at six 4-fold dilutions. In routine testing, the highest well concentration was 250 µM, but it may differ, depending on the agent. All drug concentrations were examined in duplicate. Incubations of cells with the test compounds lasted for 72 hours at 37°C, in 5% CO2 atmosphere and 100% humidity. At the end of the incubation period, the cells were assayed by using the MTT assay. Ten microliters of the MTT stock solution were pipetted into each well and incubated further for 1-4 hours. […] The optical density (OD) was measured at 540nm with the Labsystem iEMS Reader MF (UK). The tumour cell survival (TCS) was calculated using the following equitation: TCS= (ODdrug exposed well /mean ODcontrol wells) x 100%. The TCS50 value, the drug concentration lethal to 50% of the tumour cells, was calculated from the obtained dose response curves. […]

[2] = system: MCF-7; experiment: MTT cytotoxicity assay, MCF-7; conditions: MCF7, MCF-7, human breast cancer, estrogen dependent, p53+/+, Rb +/+, 72 hours, read-out: TCS50
Description: as §1, with “culture. […]” for “culture.”
(§2) The cell suspensions that were prepared and diluted according to the particular cell type and the expected target cell density (2.500-30.000 cells per well based on cell growth characteristics) were added by pipette (80 µl) into 96/well microtiter plates. […] Usually, test compounds were evaluated at six 4-fold dilutions. […] The optical density (OD) was measured at 540nm with the Labsystem iEMS Reader MF (UK). […]

[3] = system: HepG2; experiment: MTT cytotoxicity assay, HepG2; conditions: HepG2, human hepatocellular carcinoma, 72 hours, read-out: TCS50
Description: as §1, with “culture. […]” for “culture.”
as §2

[4] = system: CEM-VCR 3/D5; experiment: MTT cytotoxicity assay, CEM-VCR 3/D5; conditions: CEM-VCR 3/D5, human T-lymphoblastic leukemia, vincristin resistant, 72 hours, read-out: TCS50
Description: as §1, with “culture. […]” for “culture.”
as §2

[5] = system: Caco-2; experiment: MTT cytotoxicity assay, Caco-2; conditions: Caco-2, human colon cancer, 72 hours, read-out: TCS50
Description: as §1, with “culture. […]” for “culture.”
as §2

[6] = system: MDA-MB-238; experiment: MTT cytotoxicity assay, MDA-MB-238; conditions: MDA-MB-238, human breast cancer, estrogen independent, p53mut/mut, 72 hours, read-out: TCS50
Description: as §1, with “culture. […]” for “culture.”
as §2

[7] = system: NIH3T3; experiment: MTT cytotoxicity assay, NIH3T3; conditions: NIH3T3, mouse immortalised fibroblasts (non-malignant), 72 hours, read-out: TCS50
Description: as §1, with “culture. […]” for “culture.”
as §2

[8] = system: MEL-3; experiment: MTT cytotoxicity assay, MEL-3; conditions: MEL-3, human melanoma, 72 hours, read-out: TCS50
Description: as §1, with “culture. […]” for “culture.”
as §2

[9] = system: CEM-DNR bulk; experiment: MTT cytotoxicity assay, CEM-DNR bulk; conditions: human T-lymphoblastic leukemia, daunorubicin resistant, 72 hours, read-out: TCS50
Description: as §1, with “culture. […]” for “culture.”
as §2

[10] = system: B16F; experiment: MTT cytotoxicity assay, B16F; conditions: mouse melanoma, metastatic, 72 hours, read-out: TCS50
Description: as §1, with “culture. […]” for “culture.”
as §2

[11] = system: Saos2; experiment: MTT cytotoxicity assay, Saos2; conditions: SAOS-2, Saos2, human osteosarcoma, p53-/-, Rb-/-, 72 hours, read-out: TCS50
Description: as §1, with “culture. […]” for “culture.”
as §2

[12] = system: U87MG; experiment: MTT cytotoxicity assay, U87MG; conditions: U-87 MG, human glioblastoma, 72 hours, read-out: TCS50
Description: as §1, with “culture. […]” for “culture.”
as §2

[13] = system: K562; experiment: MTT cytotoxicity assay, K562; conditions: K562, human chronic myelogenous leukemia, 72 hours, read-out: TCS50
Description: as §1, with “culture. […]” for “culture.”
as §2

[14] = system: BT549; experiment: MTT cytotoxicity assay, BT549; conditions: BT-549, BT549, human breast cancer, p53mut/mut, 72 hours, read-out: TCS50
Description: as §1, with “culture. […]” for “culture.”
as §2

[15] = system: human normal lymphocytes; experiment: MTT cytotoxicity assay, normal lymphocytes; conditions: Lymphocyte, human normal lymphocytes (non-malignant), 72 hours, read-out: TCS50
Description: as §1, with “culture. […]” for “culture.”
as §2

[16] = system: HT-29; experiment: MTT cytotoxicity assay, HT-29; conditions: HT-29, human colon cancer, 72 hours, read-out: TCS50
Description: as §1, with “culture. […]” for “culture.”
as §2

[17] = system: DU145; experiment: MTT cytotoxicity assay, DU145; conditions: DU-145, DU145, human prostate cancer, androgen independent, Rb-/-, 72 hours, read-out: TCS50
Description: as §1, with “culture. […]” for “culture.”
as §2

[18] = system: CEM-DNR 1/C2; experiment: MTT cytotoxicity assay, CEM-DNR 1/C2; conditions: CEM-DNR 1/C2, human T-lymphoblastic leukemia, daunorubicin resistant, 72 hours, read-out: TCS50
Description: as §1, with “culture. […]” for “culture.”
as §2

[19] = system: LNCaP; experiment: MTT cytotoxicity assay, LNCaP; conditions: human prostate cancer, androgen dependent, 72 hours, read-out: TCS50
Description: as §1, with “culture. […]” for “culture.”
as §2

[20] = system: K562-CdA; experiment: MTT cytotoxicity assay, K562-CdA; conditions: human chronic myelogenous leukemia, cladrubin resistant, 72 hours, read-out: TCS50
Description: as §1, with “culture. […]” for “culture.”
as §2

[21] = system: B16; experiment: MTT cytotoxicity assay, B16; conditions: B16, mouse melanoma, 72 hours, read-out: TCS50
Description: as §1, with “culture. […]” for “culture.”
as §2

[22] = system: K562-ARA-C; experiment: MTT cytotoxicity assay, K562-ARA-C; conditions: human chronic myelogenous leukemia, cytarabin resistant, 72 hours, read-out: TCS50
Description: as §1, with “culture. […]” for “culture.”
as §2

[23] = system: CEM-VCR bulk; experiment: MTT cytotoxicity assay, CEM-VCR bulk; conditions: human T-lymphoblastic leukemia, vincristin resistant, 72 hours, read-out: TCS50
Description: as §1, with “culture. […]” for “culture.”
as §2

[24] = system: OVCAR-3; experiment: MTT cytotoxicity assay, OVCAR-3; conditions: OVCAR-3, human ovarian cancer, 72 hours, read-out: TCS50
Description: as §1, with “culture. […]” for “culture.”
as §2

[25] = system: K562-FLUD; experiment: MTT cytotoxicity assay, K562-FLUD; conditions: human chronic myelogenous leukemia, fludarabin resistant, 72 hours, read-out: TCS50
Description: as §1, with “culture. […]” for “culture.”
as §2

[26] = system: U20S; experiment: MTT cytotoxicity assay, U20S; conditions: human osteosarcoma, p53+/-, Rb +/-, 72 hours, read-out: TCS50
Description: as §1, with “culture. […]” for “culture.”
as §2

[27] = system: A549; experiment: MTT cytotoxicity assay, A549; conditions: A549, human lung adenocarcinoma, 72 hours, read-out: TCS50
Description: as §1, with “culture. […]” for “culture.”
as §2

[28] = system: CEM-VCR 1/F3; experiment: MTT cytotoxicity assay, CEM-VCR 1/F3; conditions: CEM-VCR 1/F3, human T-lymphoblastic leukemia, vincristin resistant, 72 hours, read-out: TCS50
Description: as §1, with “culture. […]” for “culture.”
as §2

[29] = system: SW620; experiment: MTT cytotoxicity assay, SW620; conditions: SW-620, SW620, human colon cancer, metastasis, 72 hours, read-out: TCS50
Description: as §1, with “culture. […]” for “culture.”
as §2

[30] = system: K562-GEM; experiment: MTT cytotoxicity assay, K562-GEM; conditions: human chronic myelogenous leukemia, gemcitabin resistant, 72 hours, read-out: TCS50
Description: as §1, with “culture. […]” for “culture.”
as §2

With `CC1(C)CC[C@]23CC[C@]4(C)[C@H](CC[C@@H]5[C@@]6(C)CC(F)(F)C(=O)C(C)(C)[C@@H]6CC[C@]54C)[C@H]2[C@H]1OC3` [III.14, 19β,28β-epoxy-2,2-difluoro-18α-oleanan-3-one] the IC50 [1] was 170 µM.

With `C=C(C)[C@@H]1CC[C@]2(C(=O)O)CC[C@]3(C)[C@H](CC[C@@H]4[C@@]5(C)CC[C@H](O)C(C)(C)[C@@H]5CC[C@]43C)[C@@H]12` [Betulinic Acid, betulinic acid, reference compound] the IC50 [1] was 250 µM, the IC50 [2] was 194 µM and the IC50 [3] was 3.6 µM. It also gave an IC50 [4] of 24 µM, an IC50 [5] of 20 µM and an IC50 [6] of 195 µM. It also gave an IC50 [7] of 250 µM, an IC50 [8] of 2.7 µM and an IC50 [9] of 250 µM. It also gave an IC50 [10] of 4.6 µM, an IC50 [11] of 250 µM and an IC50 [12] of 250 µM. For the same compound, the IC50 [13] was 250 µM, the IC50 [14] was 250 µM and the IC50 [15] was 250 µM. It also gave an IC50 [16] of 250 µM, an IC50 [17] of 241 µM and an IC50 [18] of 250 µM. The IC50 [19] was 244 µM, the IC50 [20] was 250 µM and the IC50 [21] was 36 µM. It also gave an IC50 [22] of 250 µM, an IC50 [23] of 69 µM and an IC50 [24] of 164 µM. For the same compound, the IC50 [25] was 250 µM, the IC50 [26] was 250 µM and the IC50 [27] was 236 µM. It also gave an IC50 [28] of 19 µM and an IC50 [29] of 250 µM.

In the case of `CC1(C)CC[C@]23CC[C@]4(C)[C@H](CC[C@@H]5[C@@]6(C)CC(N=[N+]=[N-])C(=O)C(C)(C)[C@@H]6CC[C@]54C)[C@H]2[C@H]1OC3` (stereo partly drawn) [III.10, 2-azido-3-oxo-19β,28β-epoxy-18α-oleanan], the IC50 [1] is reported as 13 µM.

`CC1(C)CC[C@]23CC[C@]4(C)[C@H](CC[C@@H]5[C@@]6(C)CC(Br)C(=O)C(C)(C)[C@@H]6CC[C@]54C)[C@H]2[C@H]1OC3` (stereo partly drawn) [III.3, 2-brom-3-oxo-19β,28β-epoxy-18α-oleanan] gave an IC50 [1] of 1 µM, an IC50 [2] of 2.3 µM and an IC50 [3] of 1.7 µM. For the same compound, the IC50 [4] was 2.9 µM, the IC50 [5] was 3 µM and the IC50 [6] was 1.4 µM. For the same compound, the IC50 [7] was 7.2 µM, the IC50 [8] was 1.3 µM and the IC50 [9] was 1.1 µM. For the same compound, the IC50 [10] was 4.7 µM, the IC50 [11] was 1.8 µM and the IC50 [12] was 5.1 µM. For the same compound, the IC50 [13] was 0.2 µM, the IC50 [14] was 2 µM and the IC50 [15] was 13 µM. It also gave an IC50 [16] of 1.6 µM, an IC50 [17] of 0.8 µM and an IC50 [18] of 0.6 µM. The IC50 [19] was 1.1 µM, the IC50 [20] was 0.3 µM and the IC50 [21] was 2.1 µM. It also gave an IC50 [30] of 0.9 µM, an IC50 [22] of 0.6 µM and an IC50 [23] of 2.5 µM. The IC50 [24] was 1 µM, the IC50 [25] was 0.4 µM and the IC50 [26] was 1.5 µM. It also gave an IC50 [27] of 1 µM, an IC50 [28] of 3.3 µM and an IC50 [29] of 1.2 µM.
